Laboratory results as given in patent US10428080B2, “TBK/IKK inhibitor compounds and uses thereof” (Merck Patent GmbH, priority 2015, dated 2019).

Columns and labels:
TBK1 = molecular target: T1, TBK1 (Homo sapiens, UniProt Q9UHD2); assay: TBK Biochemical Assay; conditions: read-out: TBK1 IC50
T1 sequence (Q9UHD2 1-729): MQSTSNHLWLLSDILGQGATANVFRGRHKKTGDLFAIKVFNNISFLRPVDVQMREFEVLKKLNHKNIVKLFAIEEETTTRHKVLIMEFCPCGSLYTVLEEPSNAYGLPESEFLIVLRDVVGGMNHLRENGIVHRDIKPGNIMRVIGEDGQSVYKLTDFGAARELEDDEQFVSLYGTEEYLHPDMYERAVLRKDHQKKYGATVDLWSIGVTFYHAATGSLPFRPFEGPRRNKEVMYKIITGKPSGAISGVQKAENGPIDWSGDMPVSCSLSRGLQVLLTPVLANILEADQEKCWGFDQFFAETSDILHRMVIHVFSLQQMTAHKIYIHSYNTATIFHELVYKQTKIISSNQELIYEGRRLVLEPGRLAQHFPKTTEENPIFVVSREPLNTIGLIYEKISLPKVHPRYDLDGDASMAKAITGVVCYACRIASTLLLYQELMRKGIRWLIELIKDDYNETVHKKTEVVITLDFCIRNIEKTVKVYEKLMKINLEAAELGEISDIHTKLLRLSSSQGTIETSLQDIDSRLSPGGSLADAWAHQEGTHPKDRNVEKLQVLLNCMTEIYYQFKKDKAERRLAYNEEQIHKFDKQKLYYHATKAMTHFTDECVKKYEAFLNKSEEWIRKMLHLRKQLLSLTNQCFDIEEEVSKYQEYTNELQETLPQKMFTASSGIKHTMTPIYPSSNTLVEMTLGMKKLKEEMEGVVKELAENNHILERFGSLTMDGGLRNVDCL
Summary of the method: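 TBK1 enzyme and substrate incubated with compounds (10-point 1:4 dilution, top 30 uM final, 1% DMSO) for 90 min at 25° C, then stopped. Substrate/product peaks read by microfluidic mobility-shift (Caliper LabChip); 10 uM staurosporine as full-inhibition control.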

IKKε = molecular target: T2, IKKε (Homo sapiens, UniProt Q14164); assay: IKKe Biochemical Assay; conditions: read-out: IKKε IC50
T2 sequence (Q14164 1-716): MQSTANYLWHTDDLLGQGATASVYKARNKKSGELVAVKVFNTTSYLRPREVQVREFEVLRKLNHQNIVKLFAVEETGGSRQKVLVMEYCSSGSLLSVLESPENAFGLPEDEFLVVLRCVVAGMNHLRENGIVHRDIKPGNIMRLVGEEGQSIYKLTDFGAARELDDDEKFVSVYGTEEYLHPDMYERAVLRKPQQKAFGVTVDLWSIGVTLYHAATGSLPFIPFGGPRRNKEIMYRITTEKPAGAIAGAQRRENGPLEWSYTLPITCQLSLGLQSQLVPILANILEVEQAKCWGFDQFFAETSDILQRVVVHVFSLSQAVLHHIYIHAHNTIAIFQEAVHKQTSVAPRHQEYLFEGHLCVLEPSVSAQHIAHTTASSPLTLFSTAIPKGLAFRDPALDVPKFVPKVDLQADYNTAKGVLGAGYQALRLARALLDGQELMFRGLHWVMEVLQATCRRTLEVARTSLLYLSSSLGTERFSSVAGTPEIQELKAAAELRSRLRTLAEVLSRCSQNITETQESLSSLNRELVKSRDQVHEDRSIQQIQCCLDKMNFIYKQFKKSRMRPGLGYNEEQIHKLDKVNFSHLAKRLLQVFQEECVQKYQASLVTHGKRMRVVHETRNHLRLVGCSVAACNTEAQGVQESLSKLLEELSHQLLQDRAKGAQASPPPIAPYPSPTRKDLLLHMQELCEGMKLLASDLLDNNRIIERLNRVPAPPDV
Summary of the method: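 Recombinant IKKε and substrate were incubated with compound (10-point 1:4 series, top 30 uM final, 1% DMSO) for 90 min at 25° C, then stopped. Substrate-to-product conversion was read by LabChip microfluidic mobility shift; 10 uM staurosporine served as full-inhibition wells.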

[1] = tested on: phosphorylation of the IRF-3 protein in MDA-MB-468 cells; assay: pIRF3 immunocytochemistry cell based assay; conditions: Homo sapiens; MDA-MB-468 cells, Poly(I:C) stimulation; read-out: pIRF3 IC50
Summary of the method: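 MDA-MB-468 cells got compounds (10-point, 3-fold from 10 uM) for 1 h at 37 °C, then 10 ug/ml Poly(I:C) for 2 h. Fixed, permeabilized cells were immunostained for pIRF3 with AlexaFluor488 and counterstained with PI. % phosphorylation was read by laser scanning cytometry, and IC50 curves were fitted.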

IC50 (TBK1) [nM] | IC50 (IKKε) [nM] | IC50 [1] [nM] | Structure (SMILES)
< 100 | < 100 | 100 to 1000 | COc1cc(C(=O)NC2CC(O)C2)ccc1-c1cc2nccc(-c3ccc(NC4CCOCC4)c(C#N)c3)c2o1 (stereo not drawn) [Compound 122, 4-{7-[3-Cyano-4-(tetrahydro-pyran-4-ylamino)-phenyl]-furo[3,2-b]pyridin-2-yl}-N-(3-hydroxy-cyclobutyl)-3-methoxy-benzamide]
< 100 | < 100 | 100 to 1000 | COc1cc(C(=O)N[C@H]2CCN(C)C2)ccc1-c1cc2nccc(-c3ccc(OC4CCOCC4)c(C#N)c3)c2o1 [Compound 493, 5-{2-[4-(N—((S)-methyl-pyrrolidin-3-yl)-1-carbonyl)-2-methoxy-phenyl]-furo[3,2-b]pyridin-7-yl}-2-(tetrahydro-pyran-4-yloxy)-benzonitrile]
< 100 | < 100 | < 100 | COc1cc(C(=O)N2CC(N3CCOCC3)C2)ccc1-c1cc2nccc(-c3ccc(OC4CCOCC4)c(C#N)c3)c2o1 [Compound 8]
< 100 | < 100 | 100 to 1000 | COc1cc(C(=O)NC2C3COCC32)ncc1-c1cc2nccc(-c3ccc(N4CC[C@H](F)C4)c(C#N)c3)c2o1 (stereo partly drawn) [Compound 451, 5-(7-[3-cyano-4-[(3S)-3-fluoropyrrolidin-1-yl]phenyl]furo[3,2-b]pyridin-2-yl)-4-methoxy-N-[3-oxabicyclo[3.1.0]hexan-6-yl]pyridine-2-carboxamide]
< 100 | < 100 | < 100 | COc1cc(C(=O)N2CC[C@H](N(C)C)C2)ncc1-c1cc2nccc(-c3ccc(N4CC[C@H](F)C4)c(C#N)c3)c2o1 [Compound 449, 5-[2-(6-[[(3S)-3-(dimethylamino)pyrrolidin-1-yl]carbonyl]-4-methoxypyridin-3-yl)furo[3,2-b]pyridin-7-yl]-2-[(3S)-3-fluoropyrrolidin-1-yl]benzonitrile]
< 100 | < 100 | < 100 | COc1cc(C(=O)N(C)C)n(C)c1-c1cc2nccc(-c3ccc(OC4CCOCC4)c(C#N)c3)c2o1 [Compound 402, 5-[7-[3-cyano-4-(oxan-4-yloxy)phenyl]furo[3,2-b]pyridin-2-yl]-4-methoxy-N,N,1-trimethyl-1H-pyrrole-2-carboxamide]
< 100 | < 100 | 100 to 1000 | COc1cc(C(=O)NC2(C#N)CCN(C)C2)ccc1-c1cc2nccc(-c3ccc(OC4CCOCC4)c(C#N)c3)c2o1 (stereo not drawn) [Compound 349, N-(3-cyano-1-methylpyrrolidin-3-yl)-4-[7-[3-cyano-4-(oxan-4-yloxy)phenyl]furo[3,2-b]pyridin-2-yl]-3-methoxybenzamide]
< 100 | < 100 | 100 to 1000 | COc1cc(C(=O)N(C)C)ccc1-c1cc2nccc(-c3ccc(N4CC[C@@H](F)C4)c(C#N)c3)c2o1 [Compound 57, 4-{7-[3-Cyano-4-((R)-3-fluoro-pyrrolidin-1-yl)-phenyl]-furo[3,2-b]pyridin-2-yl}-3-methoxy-N,N-dimethyl-benzamide]
< 100 | < 100 | 100 to 1000 | COc1cc(C(=O)NCC(C)(C)N(C)C)ccc1-c1cc2nccc(-c3ccc(OC4CCOCC4)c(C#N)c3)c2o1 [Compound 500, 4-{7-[3-Cyano-4-(tetrahydro-pyran-4-yloxy)-phenyl]-furo[3,2-b]pyridin-2-yl}-N-(2-dimethylamino-2-methyl-propyl)-3-methoxy-benzamide]
< 100 | < 100 | 100 to 1000 | COc1cc(C(=O)N(C)CCO)ccc1-c1cc2ncc(F)c(-c3ccc(NC4CCOCC4)c(C#N)c3)c2o1 [Compound 296, 4-(7-[3-cyano-4-[(oxan-4-yl)amino]phenyl]-6-fluorofuro[3,2-b]pyridin-2-yl)-N-(2-hydroxyethyl)-3-methoxy-N-methylbenzamide]
< 100 | < 100 | 100 to 1000 | COc1cc(C(=O)N2CCC(F)(F)C2)ccc1-c1cc2nccc(-c3ccc(OC4CCOCC4)c(C#N)c3)c2o1 [Compound 45, 5-{2-[4-(3,3-Difluoro-pyrrolidine-1-carbonyl)-2-methoxy-phenyl]-furo[3,2-b]pyridin-7-yl}-2-(tetrahydro-pyran-4-yloxy)-benzonitrile]
< 100 | < 100 | 100 to 1000 | COc1cc(C(=O)N[C@@H]2CCN(C)C2)ccc1-c1cc2nccc(-c3ccc(OC4CCOCC4)c(C#N)c3)c2o1 [Compound 494, 5-{2-[4-(N—((R)-methyl-pyrrolidin-3-yl)-1-carbonyl)-2-methoxy-phenyl]-furo[3,2-b]pyridin-7-yl}-2-(tetrahydro-pyran-4-yloxy)-benzonitrile]
< 100 | < 100 | < 100 | COc1cc(C(=O)N(C)C)ncc1-c1cc2nccc(-c3ccc(OC4CCOCC4)c(C#N)c3)c2o1 [Compound 326, 5-[7-[3-cyano-4-(oxan-4-yloxy)phenyl]furo[3,2-b]pyridin-2-yl]-4-methoxy-N,N-dimethylpyridine-2-carboxamide]
< 100 | < 100 | 100 to 1000 | COc1cc(C(=O)N(C)C)ccc1-c1cc2nccc(-c3ccc(OC4CCN(C)CC4)c(C#N)c3)c2o1 [Compound 150, 4-{7-[3-Cyano-4-(1-methyl-piperidin-4-yloxy)-phenyl]-furo[3,2-b]pyridin-2-yl}-3-methoxy-N,N-dimethyl-benzamide]
< 100 | < 100 | 100 to 1000 | COc1cc(C(=O)N(C)C)nnc1-c1cc2nccc(-c3ccc(OC4CCOCC4)c(C#N)c3)c2o1 [Compound 395, 6-[7-[3-cyano-4-(oxan-4-yloxy)phenyl]furo[3,2-b]pyridin-2-yl]-5-methoxy-N,N-dimethylpyridazine-3-carboxamide]
100 to 1000 | 100 to 1000 | 1000 to 5000 | CN(C)C(=O)c1ccc(-c2cc3ncc(F)c(-c4ccc(NC5CCOCC5)c(C#N)c4)c3o2)c(F)c1 [Compound 300, 4-(7-[3-cyano-4-[(oxan-4-yl)amino]phenyl]-6-fluorofuro[3,2-b]pyridin-2-yl)-3-fluoro-N,N-dimethylbenzamide]
1000 to 5000 | 1000 to 5000 | 1000 to 5000 | COc1cc(C(=O)N(C)C)ccc1-c1cc2nccc(-c3ccc(OC4CN(C(C)C)C4)c(C#N)c3)c2o1 [Compound 485, 4-{7-[3-Cyano-4-(1-isopropyl-azetidin-3-yloxy)-phenyl]-furo[3,2-b]pyridin-2-yl}-3-methoxy-N,N-dimethyl-benzamide]

Structure (SMILES) | IC50 (TBK1) [nM] | IC50 (IKKε) [nM] | IC50 [1] [nM]
N#Cc1cc(-c2ccnc3cc(-c4ccc(C(=O)NC5CN6CCC5CC6)cc4F)oc23)ccc1OC1CCOCC1 (stereo not drawn) [Compound 139, N-(1-Aza-bicyclo[2.2.2]oct-3-yl)-4-{7-[3-cyano-4-(tetrahydro-pyran-4-yloxy)-phenyl]-furo[3,2-b]pyridin-2-yl}-3-fluoro-benzamide] | < 100 | < 100 | 100 to 1000
COc1cc(C(=O)N[C@@H]2CN3CCC2CC3)ncc1-c1cc2nccc(-c3ccc(N4CC[C@@H](F)C4)c(C#N)c3)c2o1 [Compound 445, 5-{7-[3-Cyano-4-((R)-3-fluoro-pyrrolidin-1-yl)-phenyl]-furo[3,2-b]pyridin-2-yl}-4-methoxy-pyridine-2-carboxylic acid (1-aza-bicyclo[2.20.2]oct-3-yl)-amide] | < 100 | < 100 | < 100
